Key:
GST-RHEB [1] = biological target: T1, GST-RHEB (Homo sapiens, UniProt Q15382, P37L); assay: [3H]GDP-dissociation assay, filter binding; settings: labelled compound; 5 μM [3H]GDP preload with 10 mM EDTA, chase 200 μM GTPγS; 5 mM MgCl2, pH 7.5, 30 °C
T1 construct: residues 1-180, N-terminal GST fusion (pCold GST) kept, E. coli, glutathione-Sepharose purified

DIRAS1 = biological target: T2, DIRAS1 (Homo sapiens, UniProt O95057); assay: IP-RP-HPLC of nucleotide co-purified with Flag protein from HeLa; format: cell-based; settings: nucleotide loaded in cells; 5 mM then 1 mM MgCl2 washes
T2 construct: Flag-tagged, dox-inducible in HeLa, anti-Flag immunopurified
T2 sequence (O95057 1-195): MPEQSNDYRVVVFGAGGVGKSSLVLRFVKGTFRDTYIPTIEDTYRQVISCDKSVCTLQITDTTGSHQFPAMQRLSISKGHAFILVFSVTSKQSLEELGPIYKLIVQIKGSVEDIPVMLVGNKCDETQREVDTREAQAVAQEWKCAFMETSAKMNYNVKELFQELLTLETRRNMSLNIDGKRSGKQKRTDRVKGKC

GST-RHEB [2] = biological target: T3, GST-RHEB (Homo sapiens, UniProt Q15382); assay: [3H]GDP-dissociation assay, filter binding; settings: labelled compound; 5 μM [3H]GDP preload with 10 mM EDTA, chase 200 μM GTPγS; 5 mM MgCl2, pH 7.5, 30 °C
T3 construct: residues 1-180, N-terminal GST fusion (pCold GST) kept, E. coli, glutathione-Sepharose purified
T3 sequence (Q15382 1-180): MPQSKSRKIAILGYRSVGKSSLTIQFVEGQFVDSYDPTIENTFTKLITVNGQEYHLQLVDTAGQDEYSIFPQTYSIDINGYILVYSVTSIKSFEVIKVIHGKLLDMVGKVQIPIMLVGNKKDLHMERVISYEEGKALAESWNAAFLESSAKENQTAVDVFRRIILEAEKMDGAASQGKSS

HRAS = biological target: T4, HRAS (Homo sapiens, UniProt P01112); assay: IP-RP-HPLC of nucleotide co-purified with Flag protein from HeLa; format: cell-based; settings: nucleotide loaded in cells; 5 mM then 1 mM MgCl2 washes
T4 construct: Flag-tagged, dox-inducible in HeLa, anti-Flag immunopurified
T4 sequence (P01112 2-186): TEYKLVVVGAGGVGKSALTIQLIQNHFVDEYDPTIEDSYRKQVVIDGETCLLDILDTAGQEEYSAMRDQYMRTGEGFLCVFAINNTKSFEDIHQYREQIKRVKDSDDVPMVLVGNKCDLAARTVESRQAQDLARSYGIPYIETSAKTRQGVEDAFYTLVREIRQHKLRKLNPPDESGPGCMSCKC

DIRAS2 = biological target: T5, DIRAS2 (Homo sapiens, UniProt Q96HU8); assay: as above; format: cell-based; settings: nucleotide loaded in cells; 5 mM then 1 mM MgCl2 washes
T5 construct: Flag-tagged, dox-inducible in HeLa, anti-Flag immunopurified
T5 sequence (Q96HU8 1-196): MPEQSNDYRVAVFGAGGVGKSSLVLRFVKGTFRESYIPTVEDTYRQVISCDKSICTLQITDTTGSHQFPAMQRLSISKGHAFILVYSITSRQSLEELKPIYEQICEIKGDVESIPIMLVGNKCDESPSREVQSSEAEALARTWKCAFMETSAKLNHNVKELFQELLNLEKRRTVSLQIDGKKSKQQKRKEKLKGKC

Flag-RHEB [3] = biological target: T6, Flag-RHEB (Homo sapiens, UniProt Q15382); assay: as above; format: cell-based; settings: nucleotide loaded in cells; 5 mM then 1 mM MgCl2 washes
T6 construct: Flag-tagged, dox-inducible in HeLa, anti-Flag immunopurified
T6 sequence (Q15382 1-181): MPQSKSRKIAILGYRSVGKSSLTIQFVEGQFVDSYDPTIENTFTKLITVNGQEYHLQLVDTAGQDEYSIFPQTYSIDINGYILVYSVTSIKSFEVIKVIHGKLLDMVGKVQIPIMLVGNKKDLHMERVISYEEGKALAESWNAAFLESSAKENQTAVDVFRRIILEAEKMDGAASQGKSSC

Flag-RHEB [4] = biological target: T7, Flag-RHEB (Homo sapiens, UniProt Q15382, P37L); assay: as above; format: cell-based; settings: nucleotide loaded in cells; 5 mM then 1 mM MgCl2 washes
T7 construct: Flag-tagged, dox-inducible in HeLa, anti-Flag immunopurified
T7 sequence (Q15382 1-181 P37L): as the sequence (Q15382 1-181) above, with P37L counted along it

Flag-RHEB [5] = biological target: T8, Flag-RHEB (Homo sapiens, UniProt Q15382, S68P); assay: as above; format: cell-based; settings: nucleotide loaded in cells; 5 mM then 1 mM MgCl2 washes
T8 construct: Flag-tagged, dox-inducible in HeLa, anti-Flag immunopurified
T8 sequence (Q15382 1-181 S68P): as the sequence (Q15382 1-181) above, with S68P counted along it

Flag-RHEB [6] = biological target: T9, Flag-RHEB (Homo sapiens, UniProt Q15382, Q64L); assay: as above; format: cell-based; settings: nucleotide loaded in cells; 5 mM then 1 mM MgCl2 washes
T9 construct: Flag-tagged, dox-inducible in HeLa, anti-Flag immunopurified
T9 sequence (Q15382 1-181 Q64L): as the sequence (Q15382 1-181) above, with Q64L counted along it

GST-RHEB [7] = biological target: T10, GST-RHEB (Homo sapiens, UniProt Q15382, S68P); assay: single-turnover GTPase assay of bound GTP by IP-RP-HPLC; format: biochemical; settings: Flag-TSC1/2 beads (GAP); 5 mM MgCl2, pH 7.5, 30 °C
T10 construct: residues 1-180, N-terminal GST fusion (pCold GST) kept, E. coli, glutathione-Sepharose purified
T10 sequence (Q15382 1-180 S68P): as the sequence (Q15382 1-180) above, with S68P counted along it

GST-RHEB [8] = biological target: T3, GST-RHEB; assay: […]GTPγS filter binding time course; settings: labelled compound; 5 μM [35S]GTPγS, 5 mM MgCl2, pH 7.5, 30 °C

T1 sequence (Q15382 1-180 P37L): as the sequence (Q15382 1-180) above, with P37L counted along it

SMILES	[3H]GDP-dissociation assay, filter binding (GST-RHEB [1])	IP-RP-HPLC of nucleotide co-purified with Flag protein from HeLa (DIRAS1)	[3H]GDP-dissociation assay, filter binding (GST-RHEB [2])	IP-RP-HPLC of nucleotide co-purified with Flag protein from HeLa (HRAS)	IP-RP-HPLC of nucleotide co-purified with Flag protein from HeLa (DIRAS2)	IP-RP-HPLC of nucleotide co-purified with Flag protein from HeLa (Flag-RHEB [3])	IP-RP-HPLC of nucleotide co-purified with Flag protein from HeLa (Flag-RHEB [4])	IP-RP-HPLC of nucleotide co-purified with Flag protein from HeLa (Flag-RHEB [5])	IP-RP-HPLC of nucleotide co-purified with Flag protein from HeLa (Flag-RHEB [6])	single-turnover GTPase assay of bound GTP by IP-RP-HPLC (GST-RHEB [7])	[35S]GTPγS filter binding time course (GST-RHEB [8])
Nc1nc2c(ncn2[C@@H]2O[C@H](COP(=O)(O)OP(=O)(O)O)[C@@H](O)[C@H]2O)c(=O)[nH]1 [GDP]	the dissociation rates of the WT and P37L proteins were comparable	We could reproducibly quantify the amount of GDP and GTP bound to each small GTPase	the dissociation rates of the WT and P37L proteins were comparable	We could reproducibly quantify the amount of GDP and GTP bound to each small GTPase	We could reproducibly quantify the amount of GDP and GTP bound to each small GTPase	Representative chromatogram of guanine nucleotides bound to Flag-RHEB/WT in HeLa cells					
Nc1nc2c(ncn2[C@@H]2O[C@H](COP(=O)(O)OP(=O)(O)OP(=O)(O)O)[C@@H](O)[C@H]2O)c(=O)[nH]1 [GTP]		We could reproducibly quantify the amount of GDP and GTP bound to each small GTPase		We could reproducibly quantify the amount of GDP and GTP bound to each small GTPase	We could reproducibly quantify the amount of GDP and GTP bound to each small GTPase		both RHEB/P37L and RHEB/S68P showed increases in their GTP-bound forms	both RHEB/P37L and RHEB/S68P showed increases in their GTP-bound forms	marked increase in the ratio of the GTP-bound form of RHEB/Q64L compared with RHEB/WT	it weakly but significantly promoted that of GST-RHEB/S68P	
Nc1nc2c(ncn2[C@@H]2O[C@H](COP(=O)(O)OP(=O)(O)OP(O)(O)=S)[C@@H](O)[C@H]2O)c(=O)[nH]1 [GTPγS]											GTPγS-binding rate of RHEB/S68P was enhanced compared with that of RHEB/WT and RHEB/P37L
